Test results published in ChEMBL document CHEMBL5338823, “Discovery of Novel 5,6-Dihydro-1,2,4-triazine Derivatives as Efficacious Glucagon-Like Peptide-1 Receptor Agonists” (J Med Chem, 2023).
Active and inactive are the calls of the source. No cut-off for these calls is given here.

What was measured:
[1] = target: T1, Glucagon-like peptide 1 receptor (Homo sapiens, UniProt P43220); test: Agonist activity at N-terminal HA-tagged human GLP-1R expressed in HEK293 cells assessed as effect on intracellular cAMP accumulation incubated for 30 mins by LANCA ultra cAMP assay; type: functional, cell-based
T1 sequence (P43220 whole entry): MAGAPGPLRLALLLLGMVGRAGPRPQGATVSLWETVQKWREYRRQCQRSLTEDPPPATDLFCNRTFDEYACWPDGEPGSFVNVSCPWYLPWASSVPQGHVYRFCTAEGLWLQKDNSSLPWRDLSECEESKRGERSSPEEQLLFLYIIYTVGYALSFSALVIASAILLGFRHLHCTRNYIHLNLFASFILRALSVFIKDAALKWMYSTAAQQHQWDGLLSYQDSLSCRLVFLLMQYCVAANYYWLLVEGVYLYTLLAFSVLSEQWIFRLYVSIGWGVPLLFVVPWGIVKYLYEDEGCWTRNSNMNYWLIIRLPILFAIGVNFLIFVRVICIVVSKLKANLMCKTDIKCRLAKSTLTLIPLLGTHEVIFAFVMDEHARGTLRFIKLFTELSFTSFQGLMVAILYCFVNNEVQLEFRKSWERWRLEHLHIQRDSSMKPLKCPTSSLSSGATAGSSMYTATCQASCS

[2] = target: Voltage-gated inwardly rectifying potassium channel KCNH2 (Homo sapiens, UniProt Q12809); test: Inhibition of hERG
Sequence of Voltage-gated inwardly rectifying potassium channel KCNH2 (Q12809 whole entry): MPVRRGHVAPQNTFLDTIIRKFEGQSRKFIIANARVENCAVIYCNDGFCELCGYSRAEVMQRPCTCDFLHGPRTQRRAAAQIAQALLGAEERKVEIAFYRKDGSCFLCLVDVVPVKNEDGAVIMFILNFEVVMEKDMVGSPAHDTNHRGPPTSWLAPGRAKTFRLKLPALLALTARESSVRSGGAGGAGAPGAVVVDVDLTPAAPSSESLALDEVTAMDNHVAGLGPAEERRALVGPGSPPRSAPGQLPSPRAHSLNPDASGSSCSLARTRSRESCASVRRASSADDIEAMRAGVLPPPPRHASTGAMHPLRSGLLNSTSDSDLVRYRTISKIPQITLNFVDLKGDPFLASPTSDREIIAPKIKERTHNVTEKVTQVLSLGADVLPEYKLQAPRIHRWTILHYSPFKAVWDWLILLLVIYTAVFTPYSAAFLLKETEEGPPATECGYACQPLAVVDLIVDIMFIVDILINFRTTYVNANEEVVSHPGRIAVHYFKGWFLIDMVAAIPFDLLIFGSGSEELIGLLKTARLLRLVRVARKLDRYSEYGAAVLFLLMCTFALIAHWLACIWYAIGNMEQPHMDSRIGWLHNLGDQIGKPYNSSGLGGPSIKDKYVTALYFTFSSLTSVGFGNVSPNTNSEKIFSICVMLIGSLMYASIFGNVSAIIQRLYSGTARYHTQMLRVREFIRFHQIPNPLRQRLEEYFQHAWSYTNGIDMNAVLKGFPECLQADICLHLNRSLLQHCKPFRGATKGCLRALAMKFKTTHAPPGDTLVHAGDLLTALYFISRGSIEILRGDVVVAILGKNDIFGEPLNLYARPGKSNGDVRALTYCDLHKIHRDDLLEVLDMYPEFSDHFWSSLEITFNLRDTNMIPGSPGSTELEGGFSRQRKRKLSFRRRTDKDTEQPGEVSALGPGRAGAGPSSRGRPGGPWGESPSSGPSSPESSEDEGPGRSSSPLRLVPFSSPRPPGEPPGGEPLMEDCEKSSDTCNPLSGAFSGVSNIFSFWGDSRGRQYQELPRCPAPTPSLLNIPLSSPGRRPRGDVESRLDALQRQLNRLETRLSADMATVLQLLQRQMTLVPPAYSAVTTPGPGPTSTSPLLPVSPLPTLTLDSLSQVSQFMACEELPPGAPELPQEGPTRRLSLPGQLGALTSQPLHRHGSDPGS

[3] = Stability in human liver microsomes assessed as half-life at 1 uM measured upto 60 mins in the presence of NADPH by LC-MS/MS analysis; type: ADME, Microsome
[4] = Stability in human liver microsomes assessed as intrinsic clearance at 1 uM measured upto 60 mins in the presence of NADPH by LC-MS/MS analysis; type: ADME, Microsome; details: 1 h
[5] = Stability in mouse liver microsomes assessed as half-life at 1 uM measured upto 60 mins in the presence of NADPH by LC-MS/MS analysis; type: ADME, Microsome
hERG (KCNH2) = hERG (KCNH2) (Homo sapiens, UniProt Q12809); test: Inhibition of hERG at 40 uM relative to control
Sequence of hERG (KCNH2) (Q12809 whole entry): as above

[6] = Stability in rat liver microsomes assessed as intrinsic clearance at 1 uM measured upto 60 mins in the presence of NADPH by LC-MS/MS analysis; type: ADME, Microsome; details: 1 h
[7] = Stability in rat liver microsomes assessed as half-life at 1 uM measured upto 60 mins in the presence of NADPH by LC-MS/MS analysis; type: ADME, Microsome
[8] = Stability in mouse liver microsomes assessed as intrinsic clearance at 1 uM measured upto 60 mins in the presence of NADPH by LC-MS/MS analysis; type: ADME, Microsome; details: 1 h
[9] = target: T2, Gastric inhibitory polypeptide receptor (Homo sapiens) (UniProt P48546); test: Agonist activity at GIPR (unknown origin) expressed in HEK293 cells assessed as effect on intracellular cAMP accumulation incubated for 30 mins by LANCA ultra cAMP assay; type: functional, cell-based
T2 sequence (whole entry): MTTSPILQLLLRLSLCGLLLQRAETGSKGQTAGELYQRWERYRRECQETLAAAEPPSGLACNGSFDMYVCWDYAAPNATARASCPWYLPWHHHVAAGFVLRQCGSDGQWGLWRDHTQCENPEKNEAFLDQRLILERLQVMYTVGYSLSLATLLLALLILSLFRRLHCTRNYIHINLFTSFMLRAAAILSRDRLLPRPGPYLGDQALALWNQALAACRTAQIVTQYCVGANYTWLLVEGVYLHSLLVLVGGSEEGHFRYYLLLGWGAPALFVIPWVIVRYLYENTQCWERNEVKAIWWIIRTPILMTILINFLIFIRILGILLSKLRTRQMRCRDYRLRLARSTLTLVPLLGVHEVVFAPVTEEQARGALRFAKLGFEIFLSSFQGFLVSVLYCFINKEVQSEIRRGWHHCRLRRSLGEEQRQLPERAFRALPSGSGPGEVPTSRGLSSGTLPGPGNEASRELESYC

[10] = AUClast in Sprague-Dawley rat at 5 mg/kg, po measured upto 24 hrs by LC-MS/MS analysis; type: ADME, organism-based; set-up: dose 5 mg/kg, time < 24 hrs, route po; details: in vivo
Mus musculus [11] = test: In vivo agonist activity at GLP-1R in C57BL/6J mouse with human GLP-1R knock-in assessed as reduction in food intake at 30 mg/kg, sc measured after 2.5 to 12 hrs in dark cycle; type: functional, organism-based; details: time 2.5-12 hrs
[12] = Tmax in Sprague-Dawley rat at 5 mg/kg, po measured upto 24 hrs by LC-MS/MS analysis; type: ADME, organism-based; details: in vivo
[13] = target: T1, Glucagon-like peptide 1 receptor; test: Potency index, ratio of danuglipron EC50 to test compound EC50 for agonist activity at N-terminal HA-tagged human GLP-1R expressed in HEK293 cells assessed as change in intracellular calcium level by Fluo-4 AM dye based calcium mobilization assay; type: functional, cell-based
[14] = target: T1, Glucagon-like peptide 1 receptor; test: (§1) Partial agonist activity at N-terminal HA-tagged human GLP-1R expressed in HEK293 cells co-expressing Smbit-beta-arrestin 1/2 and GLP-1R-LgBit assessed as beta-arrestin-2 recruitment measured after 5 mins by bioluminescence based NanoBiT assay; type: functional, cell-based
[15] = Half-life in Sprague-Dawley rat at 5 mg/kg, po measured upto 24 hrs by LC-MS/MS analysis; type: ADME, organism-based; details: in vivo
[16] = Drug concentration in C57BL/6J mouse plasma at 5 mg/kg, po measured after 1 hrs by LC-MS/MS analysis; type: ADME, organism-based
[17] = target: T1, Glucagon-like peptide 1 receptor; test: (§2) Partial agonist activity at N-terminal HA-tagged human GLP-1R expressed in HEK293 cells co-expressing Smbit-beta-arrestin 1/2 and GLP-1R-LgBit assessed as beta-arrestin-1 recruitment measured after 5 mins by bioluminescence based NanoBiT assay; type: functional, cell-based
[18] = Drug concentration in C57BL/6J mouse plasma at 5 mg/kg, po measured after 4 hrs by LC-MS/MS analysis; type: ADME, organism-based
[19] = target: Glucagon receptor (Homo sapiens) (UniProt P47871); test: Agonist activity at GCGR (unknown origin) expressed in HEK293 cells assessed as effect on intracellular cAMP accumulation incubated for 30 mins by LANCA ultra cAMP assay; type: functional, cell-based
Sequence of Glucagon receptor (Homo sapiens) (P47871 whole entry): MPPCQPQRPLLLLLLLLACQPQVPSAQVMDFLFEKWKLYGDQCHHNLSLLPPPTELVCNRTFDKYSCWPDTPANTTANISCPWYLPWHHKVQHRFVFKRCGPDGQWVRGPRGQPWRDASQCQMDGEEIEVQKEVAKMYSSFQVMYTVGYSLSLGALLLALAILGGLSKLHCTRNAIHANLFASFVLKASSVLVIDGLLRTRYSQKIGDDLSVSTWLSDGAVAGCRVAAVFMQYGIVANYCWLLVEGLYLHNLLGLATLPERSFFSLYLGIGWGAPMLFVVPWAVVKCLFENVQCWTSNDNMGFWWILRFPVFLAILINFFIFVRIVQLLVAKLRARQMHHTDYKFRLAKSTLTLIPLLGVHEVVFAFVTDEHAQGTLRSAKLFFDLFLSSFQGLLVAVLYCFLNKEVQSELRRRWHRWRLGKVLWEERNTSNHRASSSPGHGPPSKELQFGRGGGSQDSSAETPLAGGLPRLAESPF

Mus musculus [20] = test: (§3) In vivo agonist activity at GLP-1R in C57BL/6J mouse with human GLP-1R knock-in assessed as reduction in blood glucose level at 1 mg/kg, po pre-treated with compound for 1 hrs followed by glucose administration and measured upto 90 mins by Oral Glucose Tolerance Test; type: functional, organism-based; details: time <= 150.0 min
[21] = target: T1, Glucagon-like peptide 1 receptor; test: Agonist activity at N-terminal HA-tagged human GLP-1R expressed in HEK293 cells assessed as change in intracellular calcium level by Fluo-4 AM dye based calcium mobilization assay; type: functional, cell-based
[22] = target: T1, Glucagon-like peptide 1 receptor; test: as §2, with “Potency index, ratio of danuglipron EC50 to test compound EC50 for partial” for “Partial”; type: functional, cell-based
[23] = target: T3, Glucagon-like peptide 2 receptor (Homo sapiens) (UniProt O95838); test: Agonist activity at GLP-2R (unknown origin) expressed in HEK293 cells assessed as effect on intracellular cAMP accumulation incubated for 30 mins by LANCA ultra cAMP assay; type: functional, cell-based
T3 sequence (whole entry): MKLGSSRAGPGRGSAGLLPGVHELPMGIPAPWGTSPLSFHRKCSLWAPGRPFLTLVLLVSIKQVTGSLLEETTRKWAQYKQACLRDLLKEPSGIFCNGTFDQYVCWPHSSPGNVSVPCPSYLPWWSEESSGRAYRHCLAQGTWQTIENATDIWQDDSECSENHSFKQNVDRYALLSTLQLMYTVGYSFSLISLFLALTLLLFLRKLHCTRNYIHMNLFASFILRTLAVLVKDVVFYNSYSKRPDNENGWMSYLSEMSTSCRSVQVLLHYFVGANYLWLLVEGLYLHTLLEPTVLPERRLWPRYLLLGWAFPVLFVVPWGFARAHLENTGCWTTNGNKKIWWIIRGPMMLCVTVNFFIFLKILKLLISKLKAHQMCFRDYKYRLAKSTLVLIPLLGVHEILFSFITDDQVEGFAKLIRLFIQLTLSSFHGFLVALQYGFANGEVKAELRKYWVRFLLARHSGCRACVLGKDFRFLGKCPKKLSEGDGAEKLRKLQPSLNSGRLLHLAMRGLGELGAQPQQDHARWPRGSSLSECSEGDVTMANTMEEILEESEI

[24] = Apparent permeability across apical to basolateral side in human Caco-2 cells at 10 uM measured after 95 mins by LC-MS/MS analysis; type: ADME, cell-based
[25] = target: T1, Glucagon-like peptide 1 receptor; test: as §1, with “Potency index, ratio of danuglipron EC50 to test compound EC50 for partial” for “Partial”; type: functional, cell-based
[26] = Cmax in Sprague-Dawley rat at 5 mg/kg, po measured upto 24 hrs by LC-MS/MS analysis; type: ADME, organism-based; set-up: time < 24 hrs, dose 5 mg/kg, route po; details: in vivo
[27] = target: T4, Glucagon-like peptide 1 receptor (Mus musculus) (UniProt O35659); test: Activation of mouse GLP-1R
T4 sequence (whole entry): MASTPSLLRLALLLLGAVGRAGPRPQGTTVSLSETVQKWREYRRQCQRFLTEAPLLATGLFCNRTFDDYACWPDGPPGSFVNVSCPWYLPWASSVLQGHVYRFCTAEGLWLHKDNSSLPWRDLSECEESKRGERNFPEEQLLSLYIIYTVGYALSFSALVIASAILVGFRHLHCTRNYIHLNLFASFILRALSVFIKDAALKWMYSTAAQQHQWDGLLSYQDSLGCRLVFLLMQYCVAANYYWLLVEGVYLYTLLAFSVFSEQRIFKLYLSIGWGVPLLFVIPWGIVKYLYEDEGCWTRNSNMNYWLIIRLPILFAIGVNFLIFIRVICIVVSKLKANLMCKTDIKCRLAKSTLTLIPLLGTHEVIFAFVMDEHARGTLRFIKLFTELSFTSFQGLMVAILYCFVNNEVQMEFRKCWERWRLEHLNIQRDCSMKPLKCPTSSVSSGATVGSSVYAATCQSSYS

Mus musculus [28] = test: as §3, with “administration for 3 hrs and further treated with second glucose dose” for “administration”, “270” for “90”; type: functional, organism-based; details: time <= 330.0 min

Row | Compound | EC50 [1] | IC50 [2] | half-life at 1 µM [3] | CLH [4] | half-life at 1 µM [5] | inhibition at 40 µM (hERG (KCNH2)) | CLH [6] | half-life at 1 µM [7] | CLH [8] | other results
1 | N#Cc1ccc(COc2cccc(N3CCC(NCc4nc5ccc(C(=O)O)cc5n4C[C@@H]4CCO4)CC3)n2)c(F)c1 | 153 nM |  |  |  |  |  |  |  |  | 
2 | CC1CN(c2cccc(OCc3ccc(C#N)cc3F)n2)C=NN1Cc1nc2ccc(C(=O)O)cc2n1C[C@@H]1CCO1 (stereo partly drawn) | 0.6 nM |  |  |  |  |  |  |  |  | 
3 | COc1cc(Cl)ccc1COc1cccc(N2C=NN(Cc3nc4c(F)cc(C(=O)O)cc4n3C[C@@H]3CCO3)CC2)n1 |  | > 40000 nM | 1.67 h | 21 mL/min/g | 0.717 h | 44% | 45 mL/min/g | 0.783 h | 49 mL/min/g | 
4 | N#Cc1ccc(COc2cccc(N3C=NN(Cc4nc5ccc(C(=O)O)cc5n4C[C@@H]4CCO4)CC3)n2)c(F)c1 |  | > 40000 nM |  |  |  | 48% |  |  |  | 
5 | O=C(O)c1ccc2nc(Cn3ccc(-c4cccc(OCc5ccc(Cl)cc5F)n4)nc3=O)n(C[C@@H]3CCO3)c2c1 | > 10000 nM |  |  |  |  |  |  |  |  | 
6 | COc1cc(C(F)(F)F)ccc1COc1cccc(N2C=NN(Cc3nc4c(F)cc(C(=O)O)cc4n3C[C@@H]3CCO3)CC2)n1 | 0.006 nM | > 40000 nM | 2.87 h | 12 mL/min/g | 1.28 h | 20% | 28 mL/min/g | 1.25 h | 27 mL/min/g | Activity [9]: inactive; AUC(0-t) at 24 h [10]: 0.07 µg·h/mL; Activity (Mus musculus [11]): Active; Tmax [12]: 0.25 h; Ratio EC50 [13]: 10; EC50 [14]: 136 nM; half-life [15]: 1.05 h; concentration at 1 h [16]: 0.132 µg/mL; EC50 [17]: 175 nM; concentration at 4 h [18]: 0.035 µg/mL; Activity [19]: inactive; Activity (Mus musculus [20]): Active; EC50 [21]: 168 nM; Ratio EC50 [22]: 10; Activity [23]: inactive; Papp A→B at 1.583 h, 10 µM [24]: 5.7 nm/s; Ratio EC50 [25]: 10; Cmax [26]: 0.13 µg/mL; Activity [27]: inactive; Activity (Mus musculus [28]): Active
7 | N#Cc1ccc(COc2cccc(C3CCN(Cc4nc5ccc(C(=O)O)cc5n4C[C@@H]4CCO4)CC3)n2)c(F)c1 [DANUGLIPRON] |  |  | 6.92 h | 5 mL/min/g | 2.8 h | 90% | 13 mL/min/g | 2.72 h | 13 mL/min/g | Activity (Mus musculus [11]): Active; Activity (Mus musculus [20]): Active; Activity [27]: inactive
8 | N#Cc1ccc(COc2cccc(OC3CCN(Cc4nc5ccc(C(=O)O)cc5n4C[C@@H]4CCO4)CC3)n2)c(F)c1 | 0.7 nM |  |  |  |  |  |  |  |  | 
